Experimental data taken from ChEMBL document CHEMBL3779776, “Synthesis and biological evaluation of 2-aroylbenzofurans, rugchalcones A, B and their derivatives as potent anti-inflammatory agents” (Bioorg Med Chem Lett, 2016).

Experiments:
RAW264.7 [1] = test: Inhibition of LPS-induced iNOS expression in mouse RAW264.7 cells at 10 uM after 18 hrs by Western blot method relative to LPS; format: functional
RAW264.7 [2] = test: Antiinflammatory activity in mouse RAW264.7 cells assessed as inhibition of LPS-induced NO production at 1 uM after 18 hrs by Griess assay relative to control; format: functional; settings: RAW264.7, 18 h
RAW264.7 [3] = test: Antiinflammatory activity in mouse RAW264.7 cells assessed as inhibition of LPS-induced NO production at 10 uM after 18 hrs by Griess assay relative to control; format: functional; settings: RAW264.7, 18 h
[4] = Cytotoxicity against mouse RAW264.7 cells assessed as cell viability at 1 uM after 24 hrs by MTS assay relative to control; format: cell-based; settings: read-out: Activity
[5] = Cytotoxicity against mouse RAW264.7 cells assessed as cell viability at 10 uM after 24 hrs by MTS assay relative to control; format: cell-based; settings: read-out: Activity
RAW264.7 [6] = test: Antiinflammatory activity in mouse RAW264.7 cells assessed as inhibition of LPS-induced NO production after 18 hrs by Griess assay; format: functional, cell-based; settings: RAW264.7, 18 h

Structure (SMILES) | fold change (FC) (RAW264.7 [1]) | inhibition at 1 µM (RAW264.7 [2]) | inhibition at 10 µM (RAW264.7 [3]) | viability at 24 h, 1 µM [4] | viability at 24 h, 10 µM [5] | IC50 (RAW264.7 [6])
COc1cc2oc(C(=O)c3ccc(O)cc3)cc2cc1O | 0.26 | 0% | 99.3% | 97.9% | 93.1% | 4.13 µM
COc1ccc(C(=O)c2cc3cc(O)c(OC)cc3o2)cc1 | 0.52 | 16.2% | 43% | 98.1% | 100% | 10.8 µM
COc1cc2cc(C(=O)c3ccc(O)cc3)oc2cc1OC | 0.46 | 8.6% | 25.8% | 106% | 102% | 10.4 µM
COc1cc2cc(C(=O)c3ccc(O)cc3)oc2cc1O | 0.18 | 54.2% | 99.6% | 98.1% | 95.9% | 0.57 µM
COc1ccc(C(=O)c2cc3cc(OC)c(OC)cc3o2)cc1 | 0.65 | 9.5% | 29.8% | 105% | 98.6% | 11.8 µM
COc1ccc(C(=O)c2cc3cc(OC)c(O)cc3o2)cc1 | 0.77 | 7.8% | 29.7% | 93.2% | 91.8% | 13.3 µM
COc1ccc(C(=O)c2cc3cc(O)c(O)cc3o2)cc1 | 0.19 | 19.7% | 96.8% | 95.1% | 101% | 1.9 µM
O=C(c1ccc(O)cc1)c1cc2cc(O)c(O)cc2o1 | 0.36 | 42.9% | 74.3% | 106% | 100% | 0.99 µM
CNC(=N)NCCC[C@H](N)C(=O)O [TILARGININE] |  | 20.9% | 92.4% | 98.6% | 97.6% | 2.69 µM
